# Test results taken from publication PMC10653868, “The LytS-type histidine kinase BtsS is a 7-transmembrane receptor that binds pyruvate” (mBio, 2023).
# Experiments:
# Assay in all cases: DRaCALA with […]-pyruvate and competition with cold pyruvate, membrane vesicles
# Type in all cases: binding
# [1] = biological target: T1, BtsS (Escherichia coli, UniProt P0AD14, R72A)
# T1 construct: BtsS-R72A-6His in membrane vesicles of E. coli MG1655 ΔbtsSRΔypdABC
# [2] = biological target: T2, BtsS (Escherichia coli, UniProt P0AD14, R99A)
# T2 construct: BtsS-R99A-6His in membrane vesicles of E. coli MG1655 ΔbtsSRΔypdABC
# T2 sequence (P0AD14 whole entry R99A): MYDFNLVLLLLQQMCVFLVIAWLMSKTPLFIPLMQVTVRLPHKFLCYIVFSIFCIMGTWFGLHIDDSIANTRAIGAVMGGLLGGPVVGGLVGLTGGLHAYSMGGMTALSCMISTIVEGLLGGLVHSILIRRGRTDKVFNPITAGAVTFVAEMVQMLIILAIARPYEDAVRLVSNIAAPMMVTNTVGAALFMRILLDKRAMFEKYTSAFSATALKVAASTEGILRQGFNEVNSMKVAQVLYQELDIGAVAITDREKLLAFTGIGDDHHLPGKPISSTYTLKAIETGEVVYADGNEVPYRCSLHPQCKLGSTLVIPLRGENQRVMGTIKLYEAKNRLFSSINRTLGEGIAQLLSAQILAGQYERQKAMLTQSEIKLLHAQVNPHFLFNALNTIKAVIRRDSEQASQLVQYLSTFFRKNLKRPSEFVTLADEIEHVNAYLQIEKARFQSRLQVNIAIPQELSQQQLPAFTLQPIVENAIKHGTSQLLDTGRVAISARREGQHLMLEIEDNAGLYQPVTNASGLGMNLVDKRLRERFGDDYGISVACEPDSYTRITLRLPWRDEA
# [3] = biological target: T3, BtsS (Escherichia coli, UniProt P0AD14)
# T3 construct: BtsS-6His in membrane vesicles of E. coli MG1655 ΔbtsSRΔypdABC
# T3 sequence (P0AD14 whole entry): as the sequence (P0AD14 whole entry R99A) above, with A99R counted along it
# [4] = biological target: T4, BtsS (Escherichia coli, UniProt P0AD14, C110A)
# T4 construct: BtsS-C110A-6His in membrane vesicles of E. coli MG1655 ΔbtsSRΔypdABC
# T4 sequence (P0AD14 whole entry C110A): as the sequence (P0AD14 whole entry R99A) above, with A99R, C110A counted along it
# [5] = biological target: T5, BtsS (Escherichia coli, UniProt P0AD14, S113A)
# T5 construct: BtsS-S113A-6His in membrane vesicles of E. coli MG1655 ΔbtsSRΔypdABC
# T5 sequence (P0AD14 whole entry S113A): as the sequence (P0AD14 whole entry R99A) above, with A99R, S113A counted along it
# T1 sequence (P0AD14 whole entry R72A): as the sequence (P0AD14 whole entry R99A) above, with R72A, A99R counted along it
structure (smiles),measurement,setting,value
CC(=O)C(=O)O [pyruvate],Kd,[1],107 ± 12.3 µM
same,Kd,[2],245 ± 10.1 µM
same,Kd,[3],67.3 ± 10.6 µM
same,Kd,[4],375 ± 21.2 µM
same,Kd,[5],284 ± 8 µM
